The data set concerns CCRIS mutagenicity, Ames/micronucleus/aberration tests. Put plainly: CCRIS mutagenicity studies.
[1] abbreviates: Test System: AMES SALMONELLA TYPHIMURIUM, Strain/Indicator: TA98, Metabolic Activation: NONE, Method: PREINCUBATION
Where [2] appears, read: Test System: AMES SALMONELLA TYPHIMURIUM, Strain/Indicator: TA98, Metabolic Activation: RAT, LIVER, S-9, PCB, Method: PREINCUBATION
The mark [3] stands for this setting: Test System: AMES SALMONELLA TYPHIMURIUM, Strain/Indicator: TA100, Metabolic Activation: NONE, Method: STANDARD PLATE.
The mark [4] stands for this setting: Test System: AMES SALMONELLA TYPHIMURIUM, Strain/Indicator: TA100, Metabolic Activation: RAT, LIVER, S-9, AROCLOR 1254, Method: STANDARD PLATE.
The mark [5] stands for this setting: Test System: AMES SALMONELLA TYPHIMURIUM, Strain/Indicator: TA102, Metabolic Activation: NONE, Method: STANDARD PLATE.
[6] abbreviates: Test System: AMES SALMONELLA TYPHIMURIUM, Strain/Indicator: TA102, Metabolic Activation: RAT, LIVER, S-9, AROCLOR 1254, Method: STANDARD PLATE.
The mark [7] stands for this setting: Test System: AMES SALMONELLA TYPHIMURIUM, Strain/Indicator: TA98, Metabolic Activation: NONE, Method: STANDARD PLATE.

These results are taken from PubChem BioAssay AID1259407 (Chemical Carcinogenesis Research Information System (CCRIS), 2018).

Active and inactive are the calls of the source. How the calls were made is not given here.

Take `Cc1ccc(N=[N+]([O-])c2ccc(C)c(N)c2)cc1N`: the mutagenic call by setting is: under setting [1], “inactive; negative”; (Test System: AMES SALMONELLA TYPHIMURIUM, Strain/Indicator: TA98, Metabolic Activation: NONE, Method: SUSPENSION/PLATE) “inactive; negative”; under setting [2], “active; positive”; (Test System: AMES SALMONELLA TYPHIMURIUM, Strain/Indicator: TA98, Metabolic Activation: RAT, LIVER, S-9, PHENOBARBITAL AND 5,6-BENZOFLAVONE, Method: SUSPENSION/PLATE) “active; positive”; (Test System: AMES SALMONELLA TYPHIMURIUM, Strain/Indicator: TA100, Metabolic Activation: NONE, Method: SUSPENSION/PLATE) “inactive; negative”; (Test System: AMES SALMONELLA TYPHIMURIUM, Strain/Indicator: TA100, Metabolic Activation: RAT, LIVER, S-9, PHENOBARBITAL AND 5,6-BENZOFLAVONE, Method: SUSPENSION/PLATE) “inactive; negative”.

`CCCCN(N)CCCC`: the mutagenic call is, setting by setting: (Test System: AMES SALMONELLA TYPHIMURIUM, Strain/Indicator: TA100, Metabolic Activation: NONE, Method: PREINCUBATION (11 HR GROWTH PERIOD FOR BACTERIA)) “active; positive”; under setting [3], “inactive; negative”; under setting [4], “inactive; negative”; (Test System: AMES SALMONELLA TYPHIMURIUM, Strain/Indicator: TA100, Metabolic Activation: RAT, LIVER, S-9, PCB, Method: PREINCUBATION (11 HR GROWTH PERIOD FOR BACTERIA)) “inactive; negative”; (Test System: AMES SALMONELLA TYPHIMURIUM, Strain/Indicator: TA102, Metabolic Activation: NONE, Method: PREINCUBATION (5 HR GROWTH PERIOD FOR BACTERIA)) “active; positive”; (Test System: AMES SALMONELLA TYPHIMURIUM, Strain/Indicator: TA102, Metabolic Activation: NONE, Method: PREINCUBATION (7 HR GROWTH PERIOD FOR BACTERIA)) “inactive; negative”. The mutagenic call reads like this: under setting [5], “inactive; negative”; under setting [6], “inactive; negative”; (Test System: AMES SALMONELLA TYPHIMURIUM, Strain/Indicator: TA102, Metabolic Activation: RAT, LIVER, S-9, PCB, Method: PREINCUBATION (5 OR 7 HR GROWTH PERIOD FOR BACTERIA)) “inactive; negative”.

With `CC1(C)CC(C(=O)O)C(C)(C)N1[O]` (centres undefined), the mutagenic call under setting [7] is “inactive; negative”; the mutagenic call under setting [3] is “inactive; negative”; the mutagenic call under setting [5] was “inactive; negative”; the mutagenic call (Test System: AMES SALMONELLA TYPHIMURIUM, Strain/Indicator: TA102, Metabolic Activation: XANTHINE OXIDASE, Method: STANDARD PLATE) was “inactive; negative”; the mutagenic call (Test System: AMES SALMONELLA TYPHIMURIUM, Strain/Indicator: TA104, Metabolic Activation: NONE, Method: STANDARD PLATE) is “inactive; negative”; the mutagenic call (Test System: AMES SALMONELLA TYPHIMURIUM, Strain/Indicator: TA104, Metabolic Activation: XANTHINE OXIDASE, Method: STANDARD PLATE) was “inactive; negative”.

Take `NCCc1cnc[nH]1`: the mutagenic call was “inactive; negative” (Test System: AMES SALMONELLA TYPHIMURIUM, Strain/Indicator: TA97, Metabolic Activation: NONE, Method: STANDARD PLATE); “inactive; negative” (Test System: AMES SALMONELLA TYPHIMURIUM, Strain/Indicator: TA97, Metabolic Activation: RAT, LIVER, S-9, AROCLOR 1254, Method: STANDARD PLATE); “inactive; negative” under setting [7]; “inactive; negative” (Test System: AMES SALMONELLA TYPHIMURIUM, Strain/Indicator: TA98, Metabolic Activation: RAT, LIVER, S-9, AROCLOR 1254, Method: STANDARD PLATE); “inactive; negative” under setting [3]; “inactive; negative” under setting [4]. Further, the mutagenic call is, setting by setting: under setting [5], “inactive; negative”; under setting [6], “inactive; negative”; (Test System: UDS RAT HEPATOCYTES, Strain/Indicator: THY INCORP, Metabolic Activation: NONE, Method: AUTORADIOGRAPHY) “inactive; negative”.

As to `CNc1ccc(Cl)cc1`, the mutagenic call (Test System: UDS RODENT HEPATOCYTES, Strain/Indicator: THY INCORP (NON-S-PHASE), Metabolic Activation: NONE, Method: AUTORADIOGRAPHY) was “active; positive”.

Consider `N[C@@H](CS/C=C/Cl)C(=O)O`, for which the mutagenic call is “inactive; negative” (Test System: AMES SALMONELLA TYPHIMURIUM, Strain/Indicator: TA100, Metabolic Activation: NONE, Method: PREINCUBATION) and “active; positive” (Test System: AMES SALMONELLA TYPHIMURIUM, Strain/Indicator: TA2638, Metabolic Activation: NONE, Method: PREINCUBATION).

`O=C(Nc1ccccc1)c1csc([N+](=O)[O-])c1`: the mutagenic call runs as follows: (Test System: AMES SALMONELLA TYPHIMURIUM, Strain/Indicator: TA98(1,8-DNP6), Metabolic Activation: NONE, Method: STANDARD PLATE) “active; positive”; (Test System: AMES SALMONELLA TYPHIMURIUM, Strain/Indicator: TA98(NR), Metabolic Activation: NONE, Method: STANDARD PLATE) “inactive; negative”; under setting [7], “active; positive”; under setting [3], “active; positive”; (Test System: AMES SALMONELLA TYPHIMURIUM, Strain/Indicator: YG1021, Metabolic Activation: NONE, Method: STANDARD PLATE) “active; positive”; (Test System: AMES SALMONELLA TYPHIMURIUM, Strain/Indicator: YG1024, Metabolic Activation: NONE, Method: STANDARD PLATE) “active; positive”.

As for `CN(C)c1nc(=O)n(C2CCCCC2)c(=O)n1C`, the mutagenic call is, setting by setting: (End Point: In vitro chromosomal aberrations, Test System: Chinese hamster ovary (CHO) cells, Metabolic Activation: None) “active; positive”; (End Point: In vitro chromosomal aberrations, Test System: Chinese hamster ovary (CHO) cells, Metabolic Activation: S-9) “inactive; negative”.

On to `c1ccc([C@H]2N[C@@H]2c2ccccc2)cc1`, for which the mutagenic call was “inactive; negative” under setting [7]; “active; positive” under setting [3]; “inactive; negative” (Test System: AMES SALMONELLA TYPHIMURIUM, Strain/Indicator: TA1537, Metabolic Activation: NONE, Method: STANDARD PLATE).

Consider `CN1CCN(c2ccc3nc(CCCCCCc4ccc5nc(-c6ccc(N(CCCl)CCCl)cc6)[nH]c5c4)[nH]c3c2)CC1`, for which the mutagenic call by setting is: under setting [7], “inactive; negative”; under setting [3], “inactive; negative”; under setting [5], “inactive; negative”.

Turning to `Oc1ccc(/C=C/c2cc(O)cc(O)c2)cc1`, the mutagenic call (End Point: CHROMOSOMAL ABERRATIONS, Test System: CHINESE HAMSTER LUNG CELLS, Metabolic Activation: NONE) was “active; positive (structural and ploidy changes)”; the mutagenic call (Test System: Ames Salmonella typhimurium, Strain/Indicator: TA102, Metabolic Activation: None, Method: Preincubation) was “inactive; negative”; the mutagenic call (Test System: Ames Salmonella typhimurium, Strain/Indicator: TA102, Metabolic Activation: Rat, Liver, S-9, Aroclor 1254 in 0.154 M KCl, Method: Preincubation) was “inactive; negative”.

For `C[C@H](CCC(=O)O)[C@H]1CC[C@H]2[C@@H]3CC[C@@H]4C[C@H](O)CC[C@]4(C)[C@H]3CC(=O)[C@]12C`, the mutagenic call was “inactive; negative” (Test System: AMES SALMONELLA TYPHIMURIUM, Strain/Indicator: TA98, Metabolic Activation: NONE, Method: FLUCTUATION TEST); “inactive; negative” under setting [1]; “inactive; negative” under setting [2]; “inactive; negative” (Test System: AMES SALMONELLA TYPHIMURIUM, Strain/Indicator: TA100, Metabolic Activation: NONE, Method: FLUCTUATION TEST).
